Source: ChEMBL document CHEMBL1130894, “Discovery of a novel benzyloxyisoquinoline derivative with potent anti-Helicobacter pylori activity” (1998)
In brackets after ≈: the same amount, converted by molar mass.

What was measured:
Format in all cases: functional
Helicobacter pylori [1] = experiment: Antibacterial activity was evaluated against Helicobacter pylori (8007).
Helicobacter pylori [2] = experiment: Antibacterial activity was evaluated against Helicobacter pylori (13001).
Helicobacter pylori [3] = experiment: Antibacterial activity was evaluated against Helicobacter pylori (9005).
Helicobacter pylori [4] = experiment: Antibacterial activity was evaluated against Helicobacter pylori (FP1757).
Moraxella catarrhalis = experiment: Antibacterial activity was evaluated against M.(B).catarrhalis (6014)
Staphylococcus aureus = experiment: Antibacterial activity was evaluated against Staphylococcus aureus (209P JC-1)
Enterococcus faecalis = experiment: Antibacterial activity was evaluated against Enterococcus faecalis (0115)
Serratia marcescens = experiment: Antibacterial activity was evaluated against Serratia marcescens (3013)
Escherichia coli = experiment: Antibacterial activity was evaluated against Escherichia coli (NIHJ JC-2)

MIC (Helicobacter pylori [1])	MIC (Helicobacter pylori [2])	MIC (Helicobacter pylori [3])	MIC (Helicobacter pylori [4])	MIC (Moraxella catarrhalis)	MIC (Staphylococcus aureus)	MIC (Enterococcus faecalis)	MIC (Serratia marcescens)	MIC (Escherichia coli)	Structure (SMILES)
0.78 µg/mL (≈ 2.44 µM)	0.78 µg/mL (≈ 2.44 µM)	0.78 µg/mL (≈ 2.44 µM)	0.78 µg/mL (≈ 2.44 µM)						Nc1ccc(Cl)c(COc2cccc3cnccc23)c1Cl
0.025 µg/mL (≈ 0.0692 µM)	0.025 µg/mL (≈ 0.0692 µM)	0.05 µg/mL (≈ 0.138 µM)	0.0125 µg/mL (≈ 0.0346 µM)	> 100 µg/mL	> 100 µg/mL	> 100 µg/mL	> 100 µg/mL	> 100 µg/mL	CC(=O)Nc1ccc(Cl)c(COc2cccc3cnccc23)c1Cl
0.39 µg/mL (≈ 1.08 µM)	0.2 µg/mL (≈ 0.554 µM)	0.39 µg/mL (≈ 1.08 µM)	0.39 µg/mL (≈ 1.08 µM)						CC(=O)Nc1cc(Cl)cc(COc2cccc3cnccc23)c1Cl
≥ 12.5 µg/mL	≥ 12.5 µg/mL	≥ 12.5 µg/mL	≥ 12.5 µg/mL						CC(=O)Nc1c(Cl)ccc(Cl)c1COc1cccc2cnccc12
0.39 µg/mL (≈ 1.41 µM)	0.2 µg/mL (≈ 0.721 µM)	0.78 µg/mL (≈ 2.81 µM)	0.78 µg/mL (≈ 2.81 µM)						c1cc(OCc2cccc3nonc23)c2ccncc2c1
0.78 µg/mL (≈ 2.56 µM)	0.78 µg/mL (≈ 2.56 µM)	1.56 µg/mL (≈ 5.13 µM)	0.78 µg/mL (≈ 2.56 µM)						Clc1cccc(Cl)c1COc1cccc2cnccc12
0.39 µg/mL (≈ 1.37 µM)	0.39 µg/mL (≈ 1.37 µM)	0.39 µg/mL (≈ 1.37 µM)	0.39 µg/mL (≈ 1.37 µM)						Nc1ccc(Cl)c(COc2cccc3cnccc23)c1
0.78 µg/mL (≈ 2.39 µM)	0.78 µg/mL (≈ 2.39 µM)	0.78 µg/mL (≈ 2.39 µM)	1.56 µg/mL (≈ 4.77 µM)						CC(=O)Nc1ccc(Cl)c(COc2cccc3cnccc23)c1
1.56 µg/mL (≈ 6.63 µM)	0.78 µg/mL (≈ 3.32 µM)	1.56 µg/mL (≈ 6.63 µM)	1.56 µg/mL (≈ 6.63 µM)						c1ccc(COc2cccc3cnccc23)cc1
1.56 µg/mL (≈ 4.47 µM)	1.56 µg/mL (≈ 4.47 µM)	1.56 µg/mL (≈ 4.47 µM)	1.56 µg/mL (≈ 4.47 µM)						O=[N+]([O-])c1ccc(Cl)c(COc2cccc3cnccc23)c1Cl
1.56 µg/mL (≈ 6.23 µM)	0.78 µg/mL (≈ 3.12 µM)	1.56 µg/mL (≈ 6.23 µM)	1.56 µg/mL (≈ 6.23 µM)						Nc1cccc(COc2cccc3cnccc23)c1
25 µg/mL (≈ 172 µM)	25 µg/mL (≈ 172 µM)	50 µg/mL (≈ 344 µM)	50 µg/mL (≈ 344 µM)						Oc1cccc2cnccc12
0.39 µg/mL (≈ 1.37 µM)	0.2 µg/mL (≈ 0.702 µM)	0.39 µg/mL (≈ 1.37 µM)	0.78 µg/mL (≈ 2.74 µM)						Nc1cccc(COc2cccc3cnccc23)c1Cl
0.39 µg/mL (≈ 1.19 µM)	0.39 µg/mL (≈ 1.19 µM)	0.39 µg/mL (≈ 1.19 µM)	0.39 µg/mL (≈ 1.19 µM)						CC(=O)Nc1cccc(COc2cccc3cnccc23)c1Cl
0.78 µg/mL (≈ 2.67 µM)	0.78 µg/mL (≈ 2.67 µM)	0.78 µg/mL (≈ 2.67 µM)	1.56 µg/mL (≈ 5.34 µM)						CC(=O)Nc1cccc(COc2cccc3cnccc23)c1
0.05 µg/mL (≈ 0.0668 µM)	0.05 µg/mL (≈ 0.0668 µM)	0.1 µg/mL (≈ 0.134 µM)	0.05 µg/mL (≈ 0.0668 µM)	< 0.025 µg/mL	0.1 µg/mL (≈ 0.134 µM)	0.2 µg/mL (≈ 0.267 µM)	100 µg/mL (≈ 134 µM)	100 µg/mL (≈ 134 µM)	CC[C@H]1OC(=O)[C@H](C)[C@@H](O[C@H]2C[C@@](C)(OC)[C@@H](O)[C@H](C)O2)[C@H](C)[C@@H](O[C@@H]2O[C@H](C)C[C@H](N(C)C)[C@H]2O)[C@](C)(OC)C[C@@H](C)C(=O)[C@H](C)[C@@H](O)[C@]1(C)O [CLARITHROMYCIN]

Structure (SMILES)	MIC (Helicobacter pylori [1])	MIC (Helicobacter pylori [2])	MIC (Helicobacter pylori [3])	MIC (Helicobacter pylori [4])	MIC (Moraxella catarrhalis)	MIC (Staphylococcus aureus)	MIC (Enterococcus faecalis)	MIC (Serratia marcescens)	MIC (Escherichia coli)
CC1(C)S[C@@H]2[C@H](NC(=O)[C@H](N)c3ccc(O)cc3)C(=O)N2[C@H]1C(=O)O [AMOXICILLIN]	0.1 µg/mL (≈ 0.274 µM)	0.025 µg/mL (≈ 0.0684 µM)	0.1 µg/mL (≈ 0.274 µM)	0.025 µg/mL (≈ 0.0684 µM)	0.39 µg/mL (≈ 1.07 µM)	0.05 µg/mL (≈ 0.137 µM)	0.39 µg/mL (≈ 1.07 µM)	> 100 µg/mL	3.13 µg/mL (≈ 8.57 µM)
